pIC50, pKd: −log10 of the molar value. The source made the active and inactive calls. The rule behind the calls is not given here.
How the values were obtained:
[1] = target: T1, DNA excision repair protein ERCC-1/DNA repair endonuclease XPF (Homo sapiens) (UniProt P07992+Q92889); assay: Inhibition of human His-tagged ERCC1-XPF expressed in Escherichia coli BL21 (DE3) cells using 6-FAM-5'CAGCGCTCGG(20T)CCGAGCGCTG-3'-dabcyl at 10 uM measured for 12 mins by fluorescence incision assay
[2] = target: T1, DNA excision repair protein ERCC-1/DNA repair endonuclease XPF (Homo sapiens); assay: Binding affinity to His-tagged human ERCC1-XPF expressed in Escherichia coli BL21 (DE3) cells at 4 uM by steady-state fluorescence assay relative to control
HCT-116 [3] = assay: Antiproliferative activity against human HCT-116 cells assessed as sensitizing capacity by measuring reduction in cell survival at 4 uM in presence of cyclophosphamide by clonogenic survival assay; type: functional, cell-based
[4] = Binding affinity to 6-FAM-5'CAGCGCTCGG(20T)CCGAGCGCTG-3'-dabcyl (unknown origin) measured for 12 mins by fluorescence incision assay
HCT-116 [5] = assay: Cytotoxicity against human HCT-116 cells assessed as reduction in cell viability at 5 to 20 uM after 3 days; type: cell-based; conditions: hct-116, 72 h, dose 5-20 µM, time 3 day
[6] = target: T1, DNA excision repair protein ERCC-1/DNA repair endonuclease XPF (Homo sapiens); assay: Inhibition of ERCC1-XPF in UV-radiated human HCT-116 cells assessed as cyclobutane pyrimidine dimer DNA repair at 2 uM preincubated for 1 hr followed by 8 J/m2 UV-C radiation and measured up to 24 hrs by IgG-Alexafluor antibody based fluorescent microscopic analysis (reference value: 16%); type: cell-based; design: scale not given: the % may be the effect or the level left; conditions: time hrs <=25
HCT-116 [7] = assay: Cytotoxicity against human HCT-116 cells assessed as reduction in cell viability at 2 uM after 3 days relative to control; type: cell-based; conditions: hct-116, 72 h, time 3 day
[8] = target: T2, DNA excision repair protein ERCC-1/DNA repair endonuclease XPF (Homo sapiens, UniProt P07992+Q92889); assay: Binding affinity to His-tagged human ERCC1-XPF expressed in Escherichia coli BL21 (DE3) cells by steady-state fluorescence assay
T2 sequence (P07992 whole entry): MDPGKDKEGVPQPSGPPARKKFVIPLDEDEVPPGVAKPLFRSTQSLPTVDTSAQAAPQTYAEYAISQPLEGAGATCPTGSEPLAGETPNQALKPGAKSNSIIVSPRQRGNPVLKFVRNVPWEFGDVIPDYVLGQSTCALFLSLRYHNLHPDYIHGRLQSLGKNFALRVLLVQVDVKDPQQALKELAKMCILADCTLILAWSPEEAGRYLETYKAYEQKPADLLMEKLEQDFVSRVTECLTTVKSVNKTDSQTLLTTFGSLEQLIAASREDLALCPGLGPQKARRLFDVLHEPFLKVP
T2 sequence (Q92889 whole entry): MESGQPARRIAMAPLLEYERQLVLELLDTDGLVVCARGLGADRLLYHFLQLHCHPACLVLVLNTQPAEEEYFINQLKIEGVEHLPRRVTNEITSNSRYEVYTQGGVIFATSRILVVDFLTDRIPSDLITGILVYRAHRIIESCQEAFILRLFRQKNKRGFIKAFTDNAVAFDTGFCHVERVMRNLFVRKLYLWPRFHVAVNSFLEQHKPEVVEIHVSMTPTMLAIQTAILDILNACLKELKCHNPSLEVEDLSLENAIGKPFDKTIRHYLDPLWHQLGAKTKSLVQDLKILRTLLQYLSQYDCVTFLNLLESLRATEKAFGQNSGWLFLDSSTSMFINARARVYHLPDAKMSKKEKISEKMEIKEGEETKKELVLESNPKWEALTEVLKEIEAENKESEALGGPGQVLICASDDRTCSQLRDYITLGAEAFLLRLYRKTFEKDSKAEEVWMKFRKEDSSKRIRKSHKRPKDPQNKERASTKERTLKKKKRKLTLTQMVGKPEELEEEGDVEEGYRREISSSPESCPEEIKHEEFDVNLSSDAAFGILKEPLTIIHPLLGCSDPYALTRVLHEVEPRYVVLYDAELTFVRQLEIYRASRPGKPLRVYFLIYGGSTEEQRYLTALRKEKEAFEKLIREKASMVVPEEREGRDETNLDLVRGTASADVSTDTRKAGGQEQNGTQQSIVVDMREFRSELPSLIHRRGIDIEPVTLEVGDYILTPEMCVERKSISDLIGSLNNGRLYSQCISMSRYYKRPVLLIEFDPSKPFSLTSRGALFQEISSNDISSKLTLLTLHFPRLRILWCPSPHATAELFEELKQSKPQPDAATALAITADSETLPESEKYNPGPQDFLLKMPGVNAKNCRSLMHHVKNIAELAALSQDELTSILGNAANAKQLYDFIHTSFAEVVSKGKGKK

HCT-116 [9] = assay: Antiproliferative activity against human UV-radiated HCT-116 cells assessed as sensitizing capacity by measuring reduction in cell survival at 2 to 4 uM by clonogenic survival assay; type: functional, cell-based; conditions: dose 2-4 µM
HCT-116 [10] = assay: Antiproliferative activity against human HCT-116 cells assessed as sensitizing capacity by measuring reduction in cell survival at 2 uM in presence of cyclophosphamide by clonogenic survival assay; type: functional, cell-based
[11] = target: T2, DNA excision repair protein ERCC-1/DNA repair endonuclease XPF; assay: Inhibition of human His-tagged human ERCC1-XPF expressed in Escherichia coli BL21 (DE3) cells using 6-FAM-5'CAGCGCTCGG(20T)CCGAGCGCTG-3'-dabcyl measured for 12 mins by fluorescence incision assay
[12] = Cytotoxicity against human HCT-116 cells assessed as cell viability at 5 uM after 3 days relative to control; type: cell-based; conditions: time 3 day, read-out: Activity
HCT-116 [13] = assay: Cytotoxicity against human HCT-116 cells assessed as reduction in cell viability at >= 5 uM after 3 days; type: cell-based; conditions: hct-116, 72 h, time 3 day
HCT-116 [14] = assay: Antiproliferative activity against human UV-radiated HCT-116 cells assessed as sensitizing capacity by measuring reduction in cell survival at 2 uM by clonogenic survival assay; type: functional, cell-based

## COc1ccc2c(Nc3ccc(O)c(CN(C)C)c3)ccnc2c1
[1]
  inhibition: Active

## COc1ccc2c(Nc3ccc(O)cc3)ccnc2c1
[1]
  inhibition: inactive

## COc1ccc2nc3cc(Cl)ccc3c(Cl)c2c1
[1]
  inhibition: inactive

## Oc1ccc2nc3cc(Cl)ccc3c(Cl)c2c1
[1]
  inhibition: Active

## CN1CCN(Cc2cc(Nc3c4ccc(Cl)cc4nc4ccc(OCc5ccccc5)cc34)ccc2O)CC1
[2]
  Activity: < 2%
HCT-116 [3]
  Activity: inactive
[4]
  pKd: 6.70
HCT-116 [5]
  Activity: Non-Toxic
[1]
  inhibition: Active

## CN(C)CCN1CCN(Cc2cc(Nc3c4ccc(Cl)cc4nc4ccc(O)cc34)ccc2O)CC1
[6]
  Activity: 35%
HCT-116 [7]
  Activity: 95%
[2]
  Activity: 25%
[4]
  pKd: 5.98
[8]
  pKd: 7.07
[1]
  inhibition: Active
HCT-116 [9]
  Activity: Active
HCT-116 [10]
  Activity: Active
[11]
  pIC50: 6.31

## COc1cc(C#N)c(Nc2c3ccc(Cl)cc3nc3ccc(O)cc23)cc1OC
[1]
  inhibition: Active

## COc1ccc2c(Nc3ccc(O)c(CN4CCN(CCN(C)C)CC4)c3)ccnc2c1
[1]
  inhibition: Active

## CN1CCN(Cc2cc(N)ccc2O)CC1
[1]
  inhibition: inactive

## COc1ccc2nc3cc(Cl)ccc3c(Nc3ccc(O)c(CN4CCN(C)CC4)c3)c2c1
[12]
  viability at 72 h, 5 µM: 35%
HCT-116 [13]
  Activity: Toxic
[8]
  pKd: 6.85
[1]
  inhibition: Active
HCT-116 [14]
  Activity: Active

## CN1CCN(Cc2cc(Nc3c4ccc(Cl)cc4nc4ccc(O)cc34)ccc2O)CC1
[1]
  inhibition: Active

## COc1ccc2c(Cl)ccnc2c1
[1]
  inhibition: inactive
